Assay results taken from patent US20120171123A1, “USES AND COMPOSITIONS FOR TREATMENT OF RHEUMATOID ARTHRITIS” (priority 2006, published 2012).

Columns and labels:
[1] = system: adult patients with RA; test: Study 1: HAQ change by CRP category; format: in vivo, human
Description: 407 patients with active RA enrolled in the 2 study arms. Of these patients, 299 (73.5%) patients completed the study until Week 52 and were evaluated.
Patients were grouped into three cohorts based on baseline CRP concentrations: low (<1 mg/dL); intermediate (1-4 mg/dL); and high (>4 mg/dL). Analyses were further conducted in two categories of patients according to their change in CRP concentrations at Week 12: those with a ≧20% decrease in CRP from baseline; or those with a <20% decrease in CRP from baseline. The following efficacy and radiographic measures were analyzed at Week 52 in the three baseline CRP categories and in the two Week 12 change in CRP categories: DAS28, ACR 20/50/70, Health assessment questionnaire (HAQ), and Total Sharp score (TSS).

[2] = system: patients with active rheumatoid arthritis; test: Study A: tender and swollen joint count (TJC28/SJC28); format: in vivo, human; conditions: for Change in SJC, mean change from baseline / Change in TJC, mean change from baseline / SJC = 0 / TJC = 0: 12 weeks
Description: Swollen and tender joints are the most characteristic features of RA, as disease severity is directly related to the number of swollen and tender joints. Counting swollen and tender joints is a key component of the clinical assessment of RA. Tender joint count (TJC) is an assessment of 28 or more joints where several different aspects of tenderness are assessed by pressure and joint manipulation on physical examination. Swollen joint count (SJC): an assessment of 28 or more joints where joints are classified as either swollen or not swollen. For TJC and SJC scoring see Fuchs and Pincus, Arthritis Rheum 37:470-475, 1994; Arthritis Rheum 37:463-464, 1994).
The study design included a 12 week open label treatment period followed by a continuation period examining safety and efficacy. […] The main inclusion criteria for the study were the following: males and females ≧18 years; rheumatoid arthritis (RA; defined by ACR criteria) for ≧3 months; unsatisfactory response (or intolerance) to at least one prior DMARD; and patients with active RA (DAS28≧3.2). Baseline demographics and disease severity is shown below in Table 1:
Efficacy of adalimumab treatment was determined by examining signs and symptoms of the patients. Various assays were used to determine efficacy, including ACR response, EULAR response, TJC and SJC count, and DAS28.
The objective of this study was to evaluate the impact of prior biologic therapies, in particular TNF-antagonists etanercept (ETA) and infliximab (INF), on key efficacy parameters of adalimumab therapy in patients with long-standing RA in clinical practice. To evaluate the impact of prior biological therapies, patients with moderate to severe RA enrolled at 450 sites in 11 European countries plus Australia (Study A). Patients with moderate to severe RA and an inadequate response to prior DMARD therapies were enrolled in a 12-week open-label study with an optional extension phase. […] Patients with previous biologic treatment must have received the last administration at least 8 weeks before enrollment Routine safety and efficacy data were collected at weeks 2, 6, and 12, and every 8 weeks in the extension phase. Efficacy parameters included ACR20, ACR50, ACR70, EULAR Response, HAQ, tender and swollen joint count (TJC28/SJC28), and DAS28. […] For this interim analysis, efficacy outcomes were evaluated after 12 weeks of therapy per the number and type of prior biologics used: None, any (ETA, INF, anakinra), ETA only, INF only, or ETA and INF but not anakinra.
Patients with long-standing, moderate to severe RA were enrolled in Study A at 450 sites in 12 different countries. The study design for Study A is outlined in FIG. 21. […] Previous treatment with other biologics was allowed up to 8 weeks before enrollment. Patients met the following inclusion criteria: Age ≧18 years; RA (defined by American College of Rheumatology criteria) for ≧3 months; active, moderate to severe RA (Disease Activity Score (DAS28)≧3.2); unsatisfactory response or intolerance to at least one prior DMARD, including biologics. Efficacy assessments were performed at weeks 0 (baseline), 2, 6, and 12. The key outcomes measured were: change in DAS28; EULAR responses; ACR20, ACR50, ACR70 responses; changes in Tender Joint Count (TJC) and Swollen Joint Count (SJC); and change in Health Assessment Questionnaire (HAQ).

[3] = prior biologic: ETA + INF (n=78)
[4] = Week 12, concomitant LEF only (n=557)
[5] = Week 12, concomitant MTX + LEF (n=123)
[6] = Week 12, concomitant MTX only (n=1561)
[7] = Week 12, concomitant QC/HQC (n=85)
[8] = Week 12, concomitant SSZ only (n=89)
[9] = Wk 12, concomitant MTX Im 15 mg (N=76), no other DMARD
[10] = Wk 12, concomitant MTX Iv 15 mg (N=23), no other DMARD
[11] = Wk 12, concomitant MTX Sc 15 mg (N=37), no other DMARD
[12] = Wk 12, concomitant MTX oral 15 mg (N=405), no other DMARD
[13] = Wk 12, concomitant MTX oral ≦7.5 (N=127), no other DMARD
[14] = Wk 12, concomitant MTX oral ≧20 mg (N=216), no other DMARD
[15] = week 12, prior biologic: ETA + INF

CN(Cc1cnc2nc(N)nc(N)c2n1)c1ccc(C(=O)N[C@@H](CCC(=O)O)C(=O)O)cc1 [mtx alone, methotrexate]
mean change in HAQ ([1]; week 52, <20% decrease in CRP at week 12): −0.29
HAQ mean change ([1]; week 52, baseline CRP 1-4 mg/dL): −0.4
HAQ mean change ([1]; week 52, baseline CRP <1 mg/dL): −0.4
HAQ mean change ([1]; week 52, baseline CRP >4 mg/dL): −0.3
mean change in HAQ ([1]; week 52, ≧20% decrease in CRP at week 12): −0.48

adalimumab: human anti-TNF mAb (HUMIRA, Abbott Laboratories), described in U.S. Pat. No. 6,090,382 as D2E7
Change in SJC, mean change from baseline ([2]; all pts in Study A (n=4241)): −6
Change in TJC, mean change from baseline ([2]; all pts in Study A (n=4241)): −8
SJC = 0 ([2]; all pts in Study A (n=4241)): 24%
TJC = 0 ([2]; all pts in Study A (n=4241)): 21%
Change in SJC, mean change from baseline ([2]; prior biologic: Any (n=688)): −6
Change in TJC, mean change from baseline ([2]; prior biologic: Any (n=688)): −8
SJC = 0 ([2]; prior biologic: Any (n=688)): 18%
TJC = 0 ([2]; prior biologic: Any (n=688)): 16%
Change in SJC, mean change from baseline ([2]; prior biologic: ETA (n=114)): −7
Change in TJC, mean change from baseline ([2]; prior biologic: ETA (n=114)): −8
SJC = 0 ([2]; prior biologic: ETA (n=114)): 21%
TJC = 0 ([2]; prior biologic: ETA (n=114)): 16%
Change in SJC, mean change from baseline [2, 3]: −5
Change in TJC, mean change from baseline [2, 3]: −7
SJC = 0 [2, 3]: 7%
TJC = 0 [2, 3]: 10%
Change in SJC, mean change from baseline ([2]; prior biologic: INF (n=358)): −6
Change in TJC, mean change from baseline ([2]; prior biologic: INF (n=358)): −8
SJC = 0 ([2]; prior biologic: INF (n=358)): 22%
TJC = 0 ([2]; prior biologic: INF (n=358)): 17%
Change in SJC, mean change from baseline ([2]; prior biologic: None (n=3553)): −7
Change in TJC, mean change from baseline ([2]; prior biologic: None (n=3553)): −8
SJC = 0 ([2]; prior biologic: None (n=3553)): 25%
TJC = 0 ([2]; prior biologic: None (n=3553)): 22%
Change in SJC (0-28), mean change from baseline [2, 4]: −6
Change in TJC (0-28), mean change from baseline [2, 4]: −8
Change in SJC (0-28), mean change from baseline [2, 5]: −8
Change in TJC (0-28), mean change from baseline [2, 5]: −10
Change in SJC (0-28), mean change from baseline ([2]; Week 12, concomitant MTX + SSZ): −7
Change in TJC (0-28), mean change from baseline ([2]; Week 12, concomitant MTX + SSZ): −8
Change in SJC (0-28), mean change from baseline [2, 6]: −7
Change in TJC (0-28), mean change from baseline [2, 6]: −8
Change in SJC (0-28), mean change from baseline [2, 7]: −7
Change in TJC (0-28), mean change from baseline [2, 7]: −9
Change in SJC (0-28), mean change from baseline [2, 8]: −6
Change in TJC (0-28), mean change from baseline [2, 8]: −7
Change in SJC (0-28), mean change from baseline [2, 9]: −6
Change in TJC (0-28), mean change from baseline [2, 9]: −8
Change in SJC (0-28), mean change from baseline [2, 10]: −7
Change in TJC (0-28), mean change from baseline [2, 10]: −11
Change in SJC (0-28), mean change from baseline [2, 11]: −7
Change in TJC (0-28), mean change from baseline [2, 11]: −10
Change in SJC (0-28), mean change from baseline [2, 12]: −6
Change in TJC (0-28), mean change from baseline [2, 12]: −8
Change in SJC (0-28), mean change from baseline [2, 13]: −7
Change in TJC (0-28), mean change from baseline [2, 13]: −8
Change in SJC (0-28), mean change from baseline [2, 14]: −7
Change in TJC (0-28), mean change from baseline [2, 14]: −9
patients achieving SJC=0 ([2]; week 12): 25%
patients achieving TJC=0 ([2]; week 12): 23%
SJC (0-28) mean change from baseline ([2]; week 12, 1 prior biologic): −6.4
TJC (0-28) mean change from baseline ([2]; week 12, 1 prior biologic): −8.0
SJC (0-28) mean change from baseline ([2]; week 12, 2 prior biologics): −6.9
TJC (0-28) mean change from baseline ([2]; week 12, 2 prior biologics): −8.1
SJC (0-28) mean change from baseline ([2]; week 12, 3 prior biologics): −6.6
TJC (0-28) mean change from baseline ([2]; week 12, 3 prior biologics): −11.3
reduction in SJC28 ([2]; week 12, median): ~70%
reduction in TJC28 ([2]; week 12, median): ~77%
SJC (0-28) mean change from baseline ([2]; week 12, no prior biologic): −6.4
TJC (0-28) mean change from baseline ([2]; week 12, no prior biologic): −8.1
SJC (0-28) mean change from baseline ([2]; week 12, prior etanercept only): −6.6
TJC (0-28) mean change from baseline ([2]; week 12, prior etanercept only): −8.4
SJC (0-28) mean change from baseline ([2]; week 12, prior infliximab only): −6.8
TJC (0-28) mean change from baseline ([2]; week 12, prior infliximab only): −7.8
Median TJC reduction ([2]; week 12, prior biologic: Any): −8
Mediant SJC reduction ([2]; week 12, prior biologic: Any): −6
Median TJC reduction ([2]; week 12, prior biologic: ETA): −8
Mediant SJC reduction ([2]; week 12, prior biologic: ETA): −7
Median TJC reduction [2, 15]: −7
Mediant SJC reduction [2, 15]: −5
Median TJC reduction ([2]; week 12, prior biologic: INF): −8
Mediant SJC reduction ([2]; week 12, prior biologic: INF): −6
Median TJC reduction ([2]; week 12, prior biologic: None): −8
Mediant SJC reduction ([2]; week 12, prior biologic: None): −7
